The values that follow come from US20200268728A1, “DRUG TARGETING CANCER STEM CELL” (Sumitomo Dainippon Pharma Co., Ltd., priority 2016, published 2020).

One test relates to HCT-116 cells. The test can be described thus: Test for inhibiting sphere-forming ability of cancer cells (Test Example 1). The conditions noted are these: Homo sapiens, 96 h, non-adherent serum-free sphere culture, 4 days, CellTiter-Glo, read-out: IC50 (μmol/L), Sphere IC50 value, concentration for 50% inhibition of cell proliferation. It is filed as cell-based, human. The procedure:
The reliable methods established for measuring the self-renewal ability of cells which is one of the CSC's properties include a method for measuring the sphere-forming ability of cancer cells in non-adherent condition in the absence of serum (Cancer Res 65, 5506-5511 (2005)). HCT-116 cells were available from the American Type Culture Collection (ATCC). HCT-116 cells were cultured at 37° C. and 5% CO2 using the McCoy's 5a medium containing 10% fetal bovine serum (FBS), 100 U/ml penicillin, and 100 μg/ml streptomycin. HCT-116 cells were seeded in a 384 Well Black Clear Bottom Ultra-Low Attachment Microplate (Corning Cat. No. 3827) in an amount of 350-800 cells/well using the DMEM/F12 medium containing 2% B27 supplement (GIBCO), 20 ng/mL epidermal growth factor (EGF) (peprotech), 10 ng/mL basic fibroblast growth factor (bFGF) (peprotech), 5 μg/mL insulin (Sigma), and 1% penicillin/streptomycin. The test compounds were added into each well to adjust the final concentration of DMSO to 0.1%, and the cells were cultured for 4 days. The number of viable cells in each well was then measured with CellTiter-Glo® Luminescent Cell Viability Assay (Promega) to calculate the concentration of each test compound for 50% inhibition of cell proliferation (Sphere IC50 value; μmol/L).
The experiment of Test Example 1 was performed for the compounds of each Example.
In general terms: Cellular ATP, detected with luciferase, serves as a proxy for viable cell number.

In the next test the test system is Capan-2. Nature of the test: Sphere-forming ability of cultured cancer cell lines (Test Example 10). It is filed as cell-based. As to conditions: Homo sapiens, 96 h; Capan-2 pancreatic cancer cell line, 4 days. The procedure:
(§1) The colon cancer cell lines SW480, DLD1, HCT15, HT29, SW948, LS174T, LS411N, SW620, LoVo, HCT116, Colo205, and Hs698T, the pancreatic cancer cell lines MiaPaca2, HPAFII, Capan2, and Panc1, the head and neck cancer cell line FaDu, the breast cancer cell lines HCC1954 and T47D, the bladder cancer cell line SW780, the liver cancer cell line HepG2, the neuroblastoma cell lines U87MG and U251, the lung cancer cell lines H460, H1437, and A549, the prostate cancer cell lines DU145 and PC3, the soft tissue tumor cell line HT1080, the testicular cancer cell line NTERA2, and the ovarian cancer cell line SKOV3 was suspended in the sphere formation medium (DMEM-F12 medium of Test Example 3 was used), and seeded in a 384-well plate with Ultra-Low Attachment surface (Corning) in an amount of 5×10^3-10×10^3 cells/well. The compound of Example 24 was then added into each well to adjust the final concentration to 10-10000 nmol/L. The plate was cultured at 37° C. and 5% carbon dioxide in an incubator for 4 days. After the culture, CellTiterGlo (Promega) was added into all of the wells, and the plate was allowed to stand at room temperature for 10 minutes to measure the intensity of luminescence of each well. The concentrations of each test compound for 50% inhibition of cell proliferation to the cell lines (Sphere IC50 value; μmol/L) was calculated from the measured intensity of luminescence. When each gene mutation in Table is reported, the mutation is represented by “+” (gene mutation information is cited from the ATCC website (https://www.atcc.org/en/Products/Cells_and_Microorganisms/Cell_Lines/Cell_lines_by_genetic_mutation.aspx), Cancer Cell Line Encyclopedia (https://portals.broadinstitute.org/ccle_legacy/home), Proc. Natl. Acad. Sci. USA 94 (1997) 10330-10334).

The test system of another test is FaDu. The description is as above. It is filed as cell-based. The conditions noted are these: Homo sapiens, 96 h; FaDu head and neck cancer cell line, 4 days. The procedure: as §1
Another test deals with HCT-15. Described as above. It is filed as cell-based. The conditions noted are these: Homo sapiens, 96 h; HCT-15 colon cancer cell line, 4 days. The procedure:
as §1

Another test has as its system NTERA-2. The test is described as above. It is filed as cell-based. The conditions noted are these: NTERA2, 96 h; NTERA-2 testicular cancer cell line, 4 days. The procedure: as §1

Turning to `O=C(Nc1cn(Cc2cc(F)c(F)c(F)c2)cn1)c1cnc(CO)c(C(F)F)c1` [Example 24, 5-(difluoromethyl)-6-(hydroxymethyl)-N-[1-(3,4,5-trifluorobenzyl)-1H-imidazol-4-yl]nicotinamide], the IC50 with HCT-116 cells was under 0.01 µmol/L; in the test with Capan-2 it was over 10 µM; in the test with FaDu, 9 nM; in the test with HCT-15, 8 nM; with NTERA-2, over 10 µM.
